Reference: patent US6583147B1, “Pyrazolopyrimidinone derivatives for the treatment of impotence” (Dong A Pharm Co., Ltd., priority 1998, dated 2003)
In brackets after ≈: the same amount, converted by molar mass. Read-outs that look alike come from different tables or passages of the source.

Tests used:
[1] = Acute oral toxicity test in rats; settings: SD, rat, in vivo, 1 g/kg; rats, oral single dose; read-out: lethal dose (LD50) of oral administration
[2] = molecular target: T1, Phosphodiesterase-5 enzyme (PDE 5) (Homo sapiens, UniProt O76074); assay: Test for phosphodiesterase-5 (PDE 5) activity; assay type: biochemical; settings: PDE 5 fraction from human corpus cavernosal tissues
T1 construct: separated by HPLC (Mono Q anion exchange column) with concentration gradient of 0-500 mM NaCl to elute PDE isozymes; from tissue; host or cells: human corpus cavernosal tissue

[3] = molecular target: T2, Phosphodiesterase-3 enzyme (PDE 3) (Oryctolagus cuniculus, UniProt G1ST54); assay: Test for phosphodiesterase-3 (PDE 3) activity; assay type: biochemical; settings: PDE 3 fraction from platelets of a rabbit
T2 construct: The supernatant was separated by DEAE-cellulose column chromatography (Whatman DE52 bead); from tissue; host or cells: rabbit platelets
T2 sequence (G1ST54 1-1128): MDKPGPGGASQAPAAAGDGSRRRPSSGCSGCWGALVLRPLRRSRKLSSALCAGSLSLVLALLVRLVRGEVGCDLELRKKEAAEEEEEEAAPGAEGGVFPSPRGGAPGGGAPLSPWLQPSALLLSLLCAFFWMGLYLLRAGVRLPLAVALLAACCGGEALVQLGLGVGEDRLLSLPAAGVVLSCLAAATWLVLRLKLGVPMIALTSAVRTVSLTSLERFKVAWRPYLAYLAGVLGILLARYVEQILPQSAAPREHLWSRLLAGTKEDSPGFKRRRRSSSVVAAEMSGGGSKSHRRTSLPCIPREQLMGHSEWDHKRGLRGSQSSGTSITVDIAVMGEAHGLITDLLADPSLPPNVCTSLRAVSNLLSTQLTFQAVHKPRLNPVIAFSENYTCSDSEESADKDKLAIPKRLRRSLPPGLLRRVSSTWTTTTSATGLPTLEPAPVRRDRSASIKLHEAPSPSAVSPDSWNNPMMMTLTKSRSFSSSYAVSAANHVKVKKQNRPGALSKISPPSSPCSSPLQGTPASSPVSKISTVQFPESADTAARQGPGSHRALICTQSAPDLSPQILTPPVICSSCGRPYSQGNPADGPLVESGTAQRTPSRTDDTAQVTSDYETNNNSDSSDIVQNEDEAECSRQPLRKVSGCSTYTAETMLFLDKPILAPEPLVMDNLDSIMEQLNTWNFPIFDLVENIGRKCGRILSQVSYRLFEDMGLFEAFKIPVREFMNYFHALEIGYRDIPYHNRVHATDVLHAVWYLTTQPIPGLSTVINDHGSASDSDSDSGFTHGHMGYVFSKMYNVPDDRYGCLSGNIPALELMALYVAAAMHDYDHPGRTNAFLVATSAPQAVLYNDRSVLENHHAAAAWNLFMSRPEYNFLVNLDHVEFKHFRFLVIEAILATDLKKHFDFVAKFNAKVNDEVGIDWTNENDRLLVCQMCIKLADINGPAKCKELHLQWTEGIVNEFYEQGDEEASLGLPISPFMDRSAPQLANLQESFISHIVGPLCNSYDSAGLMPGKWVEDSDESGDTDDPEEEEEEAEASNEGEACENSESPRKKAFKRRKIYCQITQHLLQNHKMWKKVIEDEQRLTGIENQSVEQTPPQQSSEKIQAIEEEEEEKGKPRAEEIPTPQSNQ
Procedure: Phosphodiesterase-3 enzyme (PDE 3) was separated from platelets of a rabbit. About 60 ml of blood was collected from a puncture of the abdominal artery of a rabbit in heparinized syringes. Platelet-rich plasma was harvested by centrifugation for 5 min at 450×g and further centrifuged for 15 min at 1,200×g to precipitate the platelets. The platelets were resuspended in homogenizing buffer (50 mM Tris-HCl, 1 mM MgCl2, pH 7.4), homogenized at 4° C. and ultrasonicated (30 sec/ml). The homogenized solution was centrifuged (105,000×g) for 1 hr at 4° C. to obtain the supernatant in which PDE was dissolved. The supernatant was separated by DEAE-cellulose column chromatography (Whatman DE52 bead) by using eluent (50 mM Tris-HCl, 3.75mM2-mercaptoethanol, pH 6.0) with concentration gradient of 0-1 M sodium acetate to elute PDE isozymes. The PDE activity was measured on the each column fraction by the following process to separate PDE 3 fraction and the inhibition for PDE 3 of the compounds of formula 1 was measured by using the fraction.
To 1.5 ml tube containing 100 ul of reaction mixture (15 mM Tris-HCl, 5 mM MgCl2, 0.5 mg/ml BSA, pH 7.4) were added appropriate amount of PDE 3 fraction and PDE inhibitor and the solution was mixed well. After [^3H]-cAMP or [^3H]-cGMP (500 nM, 2 uCi/ml) was added, the mixture was reacted in incubator of 30° C. for about 1 hour and the reaction was quenched by putting the tube into boiling water for about 45 seconds to 2 min. The tube was chilled in ice bath for about 5 min. To this tube was added snake venom (1 mg/ml, 100 ul) or 5′-nucleotidase (0.1 unit/tube) and the mixture was reacted in incubator of 37° C. for 10 min and chilled in ice bath. 3 times volume of methanol to the resin was added to the anion exchange resin (Bio-Rad resin, AG1-X2, 200-400 mesh) which had been already washed with 0.5 N HCl, H2O, 0.5 N NaOH, H2O, 0.5 N HCl and H2O in order and adjusted to pH 5. Then 1 ml of the pretreated resin was added to the each tube with vortexing. The mixture was left at 4° C. for 15 min with occasional vortexing and centrifuged (10,000 rpm) for about 5 min to sediment the resin. The supernatant (700 ul) was transferred to a liquid scintillation vial, and mixed with 10 ml of scintillation cocktail. After stabilizing the mixture by leaving it overnight, the radioactivity of the tube was measured by β-counter.

rats = assay: Penile erection test using rats; assay type: in vivo, rat; settings: oral single dose 10 mg/kg in 0.5% methyl cellulose, observed for 2 hours
[4] = Metabolism in rat liver (9,000xg supernatant fraction with NADPH); assay type: in vitro ADME; settings: 10 ug/ml, 37° C., 1 hr, rat liver 9,000xg supernatant with NADPH generating solution
Procedure: In order to evaluate the extent of metabolism of the compounds of formula 1, the metabolism in rat liver was studied as below similar to the reported method (C. L. Litterist, E. G. Mimnaugh, R. I. Reagan and T. G. Gram., Drug. Metabol. Disposit., 1975, 3, 259-265). In short, the disappearance of compounds after incubation in 9, 000×g supernatant fraction of rat liver homogenate in the presence of NADPH (reduced nicotinamide adenine dinucleotide phosphate) was evaluated.
First, Sprague-Dawley rat (Korea Experiment Animals, SPF) liver was isolated after perfusion through portal vein with 0.1 M phosphate buffer of pH 7.0 using tissue homogenizer at 4° C. After centrifugation at 9,000×g for 20 min, the supernatants were collected.
The compound stock solution was spiked (10 ug/ml) into each of the eppendorf tubes containing 1 ml of the mixed solution composing 1 volume of supernatants and 2 volumes of generating solution. The generating solution contains 1 mM NADP, 10 mM glucose-6-phosphate, 50 mM nicotinamide and 5 MM MgCl2 in 0.1 M phosphate buffer of pH 7.0. After vortex-mixing, each test tube was incubated in a water bath kept at 37° C. After 1 hr, was added acetonitrile to the reaction mixture and centrifuged. 100 ul of aliquot of the supernatant was sampled from each test tube for measuring the remnants by high performance liquid chromatography.

[5] = Solubility in buffer solution in pH=2&5; assay type: physicochemical; settings: for solubility at 30 min: 20 °C, thermodynamic from solid
Procedure: According to that defined in the Korea Pharmacopoeia, citrate-HCl buffer (pH 2) and citrate-NaOH buffer (pH 5) solutions were added to the powdered compounds of formula 1, respectively. After subsequent severe shaking for 30 sec every 5 min in […] for 30 min, the level of compounds in the filtrate was measured by high performance liquid chromatography.

[6] = citrate-HCl buffer, pH 2, aqueous buffer, citrate-HCl buffer (pH 2), read-out: solubility pH 2
[7] = citrate-NaOH buffer, pH 5, aqueous buffer, citrate-NaOH buffer (pH 5), read-out: solubility pH 5

## CCOc1ccc(S(=O)(=O)NCc2ccncc2)cc1-c1nc2c(CC(C)C)nn(C)c2c(=O)[nH]1 [Example 46, 5-[2-ethoxy-5-(4-pyridylmethylamidosulfonyl)phenyl]-1-methyl-3-isobutyl-1,6-dihydro-7H-pyrazolo (4,3-d)pyrimidin-7-one]
[1]
  LD50: > 1000 mg/kg
[2]
  IC50: 1.2 nM
[3]
  IC50: > 201000 nM
rats
  PEI (penile erection index): 200.0 ± 173.2
  genital grooming (number of genital groomings): 1.3 ± 0.6
[4]
  remnants (%): 75.9%
[5]; [6]
  solubility at 30 min: 183 µg/mL (≈ 0.369 mM)
[5]; [7]
  solubility at 30 min: 0.4 µg/mL (≈ 0.000805 mM)

## CCOc1ccc(S(=O)(=O)NCc2cccnc2)cc1-c1nc2c(CC(C)C)nn(C)c2c(=O)[nH]1 [Example 48, 5-[2-ethoxy-5-(3-pyridylmethylamidosulfonyl)phenyl]-1-methyl-3-isobutyl-1,6-dihydro-7H-pyrazolo(4,3-d)pyrimidin-7-one]
[1]
  LD50: > 1000 mg/kg
[2]
  IC50: 0.89 nM
[3]
  IC50: 33600 nM
rats
  PEI (penile erection index): 166.7 ± 57.7
  genital grooming (number of genital groomings): 1.3 ± 0.6
[4]
  remnants (%): 66.0%
[5]; [6]
  solubility at 30 min: 114 µg/mL (≈ 0.23 mM)
[5]; [7]
  solubility at 30 min: 0.3 µg/mL (≈ 0.000604 mM)

## CCCOc1ccc(S(=O)(=O)NCc2cccnc2)cc1-c1nc2c(CCC)nn(C)c2c(=O)[nH]1 [Example 49, 5-[2-propyloxy-5-(3-pyridylmethylamidosulfonyl)phenyl]-1-methyl-3-propyl-1,6-dihydro-7H-pyrazolo(4,3-d)pyrimidin-7-one]
[1]
  LD50: > 1000 mg/kg
[2]
  IC50: 0.3 nM
[3]
  IC50: 25200 nM
rats
  PEI (penile erection index): 200.0 ± 173.2
  genital grooming (number of genital groomings): 1.3 ± 0.6
[4]
  remnants (%): 71.3%
[5]; [6]
  solubility at 30 min: 43 µg/mL (≈ 0.0866 mM)

## CCOc1ccc(S(=O)(=O)NCc2ccccn2)cc1-c1nc2c(CC(C)C)nn(C)c2c(=O)[nH]1 [Example 51, 5-[2-ethoxy-5-(2-pyridylmethylamidosulfonyl)phenyl]-1-methyl-3-isobutyl-1,6-dihydro-7H-pyrazolo(4,3-d)pyrimidin-7-one]
[1]
  LD50: > 1000 mg/kg
[2]
  IC50: 1.5 nM
[3]
  IC50: > 201000 nM
rats
  PEI (penile erection index): 233.3 ± 152.8
  genital grooming (number of genital groomings): 3.0 ± 2.0
[4]
  remnants (%): 70.4%
[5]; [6]
  solubility at 30 min: 215 µg/mL (≈ 0.433 mM)
[5]; [7]
  solubility at 30 min: 1 µg/mL (≈ 0.00201 mM)

## CCCOc1ccc(S(=O)(=O)NCC2CCCN2C)cc1-c1nc2c(CCC)nn(C)c2c(=O)[nH]1 (centres unmarked) [Example 56, 5-[2-propyloxy-5-(1-methyl-2-pyrrolidinylmethylamidosulfonyl)phenyl]-1-methyl-3-propyl-1,6-dihydro-7H-pyrazolo(4,3-d)pyrimidin-7-one]
[1]
  LD50: > 1000 mg/kg
[2]
  IC50: 14.2 nM
[3]
  IC50: > 199000 nM
rats
  PEI (penile erection index): 200.0 ± 81.7
  genital grooming (number of genital groomings): 2.0 ± 0.0
[4]
  remnants (%): 83.9%
[5]; citrate-HCl buffer (pH 2)
  solubility pH 2: 3918 ug/ml
[5]; [6]
  solubility at 30 min: 3720 to 5360 µg/mL (≈ 7.4 to 10.7 mM)
[5]; citrate-NaOH buffer (pH 5)
  solubility pH 5: 6361 ug/ml
[5]; [7]
  solubility at 30 min: 4920 to 14800 µg/mL (≈ 9.79 to 29.4 mM)

## CCOc1ccc(S(=O)(=O)NCC2CCCN2C)cc1-c1nc2c(CC(C)C)nn(C)c2c(=O)[nH]1 (centres unmarked) [Example 58, 5-[2-ethoxy-5-(1-methyl-2-pyrrolidinylmethylamidosulfonyl)phenyl]-1-methyl-3-isobutyl-1,6-dihydro-7H-pyrazolo(4,3-d)pyrimidin-7-one]
[1]
  LD50: > 1000 mg/kg
[2]
  IC50: 16 nM
[3]
  IC50: > 199000 nM
rats
  PEI (penile erection index): 275.0 ± 170.8
  genital grooming (number of genital groomings): 3.0 ± 1.8
[4]
  remnants (%): 93.5%
[5]; citrate-HCl buffer (pH 2)
  solubility pH 2: 3722 ug/ml
[5]; [6]
  solubility at 30 min: 3720 to 5360 µg/mL (≈ 7.4 to 10.7 mM)
[5]; citrate-NaOH buffer (pH 5)
  solubility pH 5: 9003 ug/ml
[5]; [7]
  solubility at 30 min: 4920 to 14800 µg/mL (≈ 9.79 to 29.4 mM)

## CCCOc1ccc(S(=O)(=O)NCC2CCN(C)C2)cc1-c1nc2c(CCC)nn(C)c2c(=O)[nH]1 (centres unmarked) [Example 60, 5-[2-propyloxy-5-(1-methyl-3-pyrrolidinylmethylamidosulfonyl)phenyl]-1-methyl-3-propyl-1,6-dihydro-7H-pyrazolo(4,3-d)pyrimidin-7-one]
[1]
  LD50: > 1000 mg/kg
[2]
  IC50: 34.7 nM
[3]
  IC50: > 199000 nM
rats
  PEI (penile erection index): 300.0 ± 81.7
  genital grooming (number of genital groomings): 2.8 ± 0.5
[4]
  remnants (%): 78.2%
[5]; citrate-HCl buffer (pH 2)
  solubility pH 2: 4497 ug/ml
[5]; [6]
  solubility at 30 min: 3720 to 5360 µg/mL (≈ 7.4 to 10.7 mM)
[5]; citrate-NaOH buffer (pH 5)
  solubility pH 5: 4923 ug/ml
[5]; [7]
  solubility at 30 min: 4920 to 14800 µg/mL (≈ 9.79 to 29.4 mM)

## CCOc1ccc(S(=O)(=O)NCC2CCN(C)C2)cc1-c1nc2c(CC(C)C)nn(C)c2c(=O)[nH]1 (centres unmarked) [Example 62, 5-[2-ethoxy-5-(1-methyl-3-pyrrolidinylmethylamidosulfonyl)phenyl]-1-methyl-3-isobutyl-1,6-dihydro-7H-pyrazolo(4,3-d)pyrimidin-7-one]
[1]
  LD50: > 1000 mg/kg
[2]
  IC50: 41.7 nM
[3]
  IC50: 164000 nM
rats
  PEI (penile erection index): 200.0 ± 100.0
  genital grooming (number of genital groomings): 3.0 ± 1.0
[4]
  remnants (%): 94.5%
[5]; citrate-HCl buffer (pH 2)
  solubility pH 2: 4383 ug/ml
[5]; [6]
  solubility at 30 min: 3720 to 5360 µg/mL (≈ 7.4 to 10.7 mM)
[5]; citrate-NaOH buffer (pH 5)
  solubility pH 5: 3596 ug/ml
[5]; [7]
  solubility at 30 min: 4920 to 14800 µg/mL (≈ 9.79 to 29.4 mM)
